Laboratory results: patent publication US11534457B2, “Use of dextran sulfate” (priority 2017, dated 2022)

Test system: severe traumatic brain injury (sTBI)
Assay: sTBI in rats, brain gene expression arrays and pathway analysis (Example 9)
Assay type: in vivo, Male Wistar rats
Parameters: key to z score, canonical pathway Dendritic Cell Maturation / z score, canonical pathway Adrenomedullin Signaling pathway / z score, canonical pathway Endothelin-1 Signaling / effect on canonical pathway Adrenomedullin Signaling pathway / effect on canonical pathway Endothelin-1 Signaling / effect on canonical pathway Dendritic Cell Maturation / Ingenuity canonical pathway Adrenomedullin signaling pathway, z score / Ingenuity canonical pathway FLT3 Signaling in Hematopoietic Progenitor Cells, z score / Ingenuity canonical pathway Opioid Signaling Pathway, z score / Ingenuity canonical pathway VDR/RXR Activation, z score / Ingenuity canonical pathway Neuropathic Pain Signaling In Dorsal Horn Neurons, z score / Ingenuity canonical pathway STAT3 Pathway, z score / Ingenuity canonical pathway IL-1 Signaling, z score / Ingenuity canonical pathway IL-6 Signaling, z score / Ingenuity canonical pathway NF-κB Signaling, z score / Ingenuity canonical pathway Role of NFAT in Cardiac Hypertrophy, z score / Ingenuity canonical pathway PPARα/RXRα Activation, z score: *: ambiguous effect
Settings: for effect of TBI on molecular processes and diseases: given 30 minutes after injury; for TBI-induced alterations in neurodegeneration and scarring-related canonical pathways: given within 30 minutes of TBI
Method: The experimental protocol used in this study was approved by the Ethical Committee of the Catholic University of Rome, according to international standards and guidelines for animal care. Male Wistar rats of 300-350 g body weight were fed with standard laboratory diet and water ad libitum in a controlled environment. As the anesthetic mixture, the animals received 35 mg/kg b.w. ketamine and 0.25 mg/kg body weight midazolam by i.p. injection. Severe traumatic brain injury (sTBI) was induced by dropping a 450 g weight from 2 m height on to the rat head that had been protected by a metal disk previously fixed on the skull, according to the “weight drop” impact acceleration model (Marmarou et al., A new model of diffuse brain injury in rats. Part I: Pathophysiology and biomechanics. J Neurosurg. 1994; 80: 291-300). […] At the end of each period of treatment, rats were anesthetized again and then immediately sacrificed.
LMW-DS (Tikomed AB) was provided at a stock concentration of 20 mg/ml and was kept in a temperature-monitored refrigerator at 4° C. LMW-DS aliquots were diluted to the appropriate dosing concentration in sterile saline prior to delivery of a single subcutaneous injection.
Three doses of LMW-DS were administered subcutaneously 30 minutes post-TBI. The animals were sacrificed at 2 days post-TBI. The animals were divided into the following subgroups:
Three doses of LMW-DS were administered subcutaneously 30 minutes post-TBI. The animals were sacrificed at 7 days post-TBI. The animals were divided into the following subgroups:
An in vivo craniectomy was performed on all animals during anesthesia. After carefully removing the rat's skull, the brain was exposed and removed with a surgical spatula and quickly dropped in RNALater and preserved at 4° C. for further processing.
RNA extraction and array processing was carried out by SourceBioscience. The arrays used were the Agilent Rat expression arrays.
Statistical analysis was carried out using the Metaboanalyst software package. Gene expression changes of 10% with a p<0.05 were regarded as significant.
Pathway analysis of the differentially regulated genes was carried out using the Ingenuity pathway analysis package. The analysis was performed with special reference to pathways and molecular processes and diseases associated with neurodegenerative disease, including dementia, Alzheimer's disease, ALS, TBI and stroke, and with scarring and fibrosis, including glaucoma and normal pressure hydrocephalus (NPH) after subarachnoid haemorrhage.

[1] = TBI + 15 mg/kg repeat dose LMW-DS, after 7 days, TBI: Inhibited
[2] = TBI + 15 mg/kg repeated dose LMW-DS, 7 days after TBI
[3] = TBI + 15 mg/kg repeated dose LMW-DS, 7 days after TBI, relative to control

Substance: low molecular weight dextran sulfate [LMW-DS]
- Diseases or functions annotation: Differentiation of bone cells [1]: Inhibited
- Diseases or functions annotation: Differentiation of connective tissue cells [1]: Inhibited
- Diseases or functions annotation: Digestive system cancer [1]: Inhibited
- Diseases or functions annotation: Epithelial neoplasm [1]: Inhibited
- Diseases or functions annotation: Formation of cellular protrusions [1]: Activated
- Diseases or functions annotation: Formation of intercellular junctions [1]: Activated
- Diseases or functions annotation: Learning [1]: Activated
- Diseases or functions annotation: Microtubule dynamics [1]: Activated
- Diseases or functions annotation: Migration of cells [1]: Activated
- Diseases or functions annotation: Morphogenesis of neurons [1]: Activated
- Diseases or functions annotation: Neurotransmission [1]: Activated
- Diseases or functions annotation: Non-hematological solid tumor [1]: Inhibited
- Diseases or functions annotation: Non-melanoma solid tumor [1]: Inhibited
- Diseases or functions annotation: Nonhematologic malignant neoplasm [1]: Inhibited
- Diseases or functions annotation: Organization of cytoplasm [1]: Activated
- Diseases or functions annotation: Organization of cytoskeleton [1]: Activated
- Diseases or functions annotation: Quantity of Ca^2+ [1]: Activated
- Diseases or functions annotation: Quantity of carbohydrate [1]: Inhibited
- Diseases or functions annotation: Quantity of cells [1]: Activated
- Diseases or functions annotation: Size of body [1]: Activated
- Diseases or functions annotation: Transport of ion [1]: Activated
- Diseases or functions annotation: Transport of metal [1]: Activated
- Diseases or functions annotation: Transport of molecule [1]: Activated
- Diseases or functions annotation: Tumorigenesis of tissue [1]: Inhibited
- Ingenuity canonical pathway: 3-phosphoinositide Degradation [2]: Activated
- Ingenuity canonical pathway: Acute Phase Response Signaling [2]: Inhibited
- Ingenuity canonical pathway: Adrenomedullin signaling pathway [2]: Inhibited
- Ingenuity canonical pathway: B Cell Receptor Signaling [2]: Inhibited
- Ingenuity canonical pathway: Ephrin Receptor Signaling [2]: Activated
- Ingenuity canonical pathway: Fc Epsilon RI Signaling [2]: Inhibited
- Ingenuity canonical pathway: G Beta Gamma Signaling [2]: Activated
- Ingenuity canonical pathway: NF-κB Signaling [2]: Activated
- Ingenuity canonical pathway: Opioid Signaling Pathway [2]: Activated
- Ingenuity canonical pathway: Role of NFAT in Cardiac Hypertrophy [2]: Activated
- Ingenuity canonical pathway: Role of NFAT in Regulation of the Immune Response [2]: Activated
- Ingenuity canonical pathway: Signaling by Rho Family GTPases [2]: Activated
- Ingenuity canonical pathway: Superpathway of Inositol Phosphate Compounds [2]: Activated
- Ingenuity canonical pathway: Synaptic Long Term Depression [2]: Activated
- z score: Abdominal cancer [2]: −2.015
- z score: Abdominal neoplasm [2]: −1.116
- z score: Adenocarcinoma [2]: −0.944
- z score: Branching of cells [2]: 0.397
- z score: Carcinoma [2]: −0.358
- z score: Cell movement [2]: 0.154
- z score: Cell-cell contact [2]: 1.504
- z score: Concentration of hormone [2]: 0.825
- z score: Concentration of lipid [2]: −0.204
- z score: Dendritic growth/branching [2]: −0.169
- z score: Development of connective tissue cells [2]: −0.005
- z score: Development of gap junctions [2]: 0.849
- z score: Development of neurons [2]: 0.688
- z score: Developmental process of synapse [2]: 0.849
- z score: Differentiation of bone cells [2]: −0.237
- z score: Differentiation of connective tissue cells [2]: −0.011
- z score: Digestive organ tumor [2]: −1.481
- z score: Digestive system cancer [2]: −1.513
- z score: Epithelial neoplasm [2]: −0.999
- z score: Extracranial solid tumor [2]: 0.529
- z score: Formation of cellular protrusions [2]: 1.183
- z score: Formation of intercellular junctions [2]: 0.391
- z score: Gastrointestinal tumor [2]: −1.284
- z score: Hematologic cancer [2]: −2.216
- z score: Hematopoietic neoplasm [2]: −2.027
- z score: Learning [2]: 0.469
- z score: Microtubule dynamics [2]: 1.962
- z score: Migration of cells [2]: 0.271
- z score: Morphogenesis of neurons [2]: 0.205
- z score: Neurotransmission [2]: 1.214
- z score: Non-hematologic malignant neoplasm [2]: −0.223
- z score: Non-hematological solid tumor [2]: −0.913
- z score: Non-melanoma solid tumor [2]: −1.478
- z score: Obesity [2]: 2.18
- z score: Organization of cytoplasm [2]: 1.922
- z score: Organization of cytoskeleton [2]: 1.922
- z score: Quantity of carbohydrate [2]: −0.017
- z score: Quantity of cells [2]: 0.493
- z score: Seizure disorder [2]: 1.376
- z score: Size of body [2]: 0.67
- z score: Skin lesion [2]: 0.532
- z score: Transport of ion [2]: 1.109
- z score: Transport of metal [2]: 1
- z score: Transport of molecule [2]: 1.143
- z score: Tumorigenesis of tissue [2]: −1.333
- Ingenuity canonical pathway 3-phosphoinositide Degradation, z score [3]: 2
- Ingenuity canonical pathway Acute Phase Response Signaling, z score [3]: −0.447
- Ingenuity canonical pathway Adrenomedullin signaling pathway, z score [3]: −0.378
- Ingenuity canonical pathway B Cell Receptor Signaling, z score [3]: −0.447
- Ingenuity canonical pathway Ephrin Receptor Signaling, z score [3]: 2.236
- Ingenuity canonical pathway FLT3 Signaling in Hematopoietic Progenitor Cells, z score [3]: *
- Ingenuity canonical pathway Fc Epsilon RI Signaling, z score [3]: −1
- Ingenuity canonical pathway G Beta Gamma Signaling, z score [3]: 2.236
- Ingenuity canonical pathway IL-1 Signaling, z score [3]: *
- Ingenuity canonical pathway IL-6 Signaling, z score [3]: *
- Ingenuity canonical pathway NF-κB Signaling, z score [3]: 0.447
- Ingenuity canonical pathway Neuropathic Pain Signaling In Dorsal Horn Neurons, z score [3]: *
- Ingenuity canonical pathway Opioid Signaling Pathway, z score [3]: 0.816
- Ingenuity canonical pathway Role of NFAT in Cardiac Hypertrophy, z score [3]: 0.447
- Ingenuity canonical pathway Role of NFAT in Regulation of the Immune Response, z score [3]: 2.236
- Ingenuity canonical pathway Signaling by Rho Family GTPases, z score [3]: 1
- Ingenuity canonical pathway Superpathway of Inositol Phosphate Compounds, z score [3]: 2
- Ingenuity canonical pathway Synaptic Long Term Depression, z score [3]: 1.342
- effect of TBI on molecular processes and diseases (2 days): mostly abolished
- effect of TBI on molecular processes and diseases (7 days): mostly abolished
- TBI-induced alterations in neurodegeneration and scarring-related canonical pathways (2 days): counteracted
- TBI-induced alterations in neurodegeneration and scarring-related canonical pathways (7 days): counteracted
